One may read the Kd as the free concentration of one partner at which half of the binding sites on the other are occupied at equilibrium, for simple one-to-one binding.

The text below walks through data of patent US20230115945A1, “AMINOPYRIMIDINE COMPOUNDS” (TYRA BIOSCIENCES, INC., priority 2019, published 2023).

Assay [1] addresses T1, FGFR4 (Homo sapiens, UniProt P22455).
T1 construct: made in house; host or cells: E. coli host derived from BL21, infected with T7 phage
Put plainly: Kinase binding assay (Kd), FGFR4. The settings on record: 11-point 3-fold dilution, qPCR readout. The gist of the method: (§1)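 Competition binding: kinase-tagged T7 phage, ligand-coated streptavidin beads and an 11-point 3-fold compound series (0.9% DMSO final) were incubated 1 h at room temperature. Bead-bound kinase was eluted and quantified by qPCR. Kd was fitted to the Hill equation with slope fixed at −1.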

Assay [2] deals with RT112/84 cells (Bladder Cancer, FGFR3-TACC3 fusion). Put plainly: Cancer cell line cell viability assay, RT112/84. It counts as cell-based. The settings on record: Homo sapiens, 72 hours, Cell Titer-Glo 2.0, read-out: Cancer Cell Viability Assays RT112/84 (IC50 nM). The text has this: [table] To detect the change of intracellular ATP by Cell Titer-Glo® and to evaluate the inhibitory effect of the compounds on cancer cell lines by determining the in vitro IC50 value of the compounds. Cell Titer-Glo® 2.0 Luminescent cell viability assay reagent was purchased from Promega (Madison, Wis.). RT112/84, SNU-16, and KG-1 cell lines were purchased from American Type Culture Collection (Manassas, Va.). UM-UC-14 cell line was purchased from Sigma (St. Louis, Mo.). RT112/84, UM-UC-14, SNU-16, and KG-1 cells were cultured in RPMI1640 media supplemented with 10% fetal bovine serum. Cultures were maintained at 37° C. in a humidified atmosphere of 5% CO2 and 95% air. Cell Viability Assay Procedure: Cells were plated in 96-well clear bottom/white plates (Corning #3903) at 10,000 cells/well in 100 μl of media, incubated overnight. The next day, test compound DMSO stock solutions were made at 10 mM and 2 μM final concentration. Compounds were then added to cells in a 9-dose, […] dilution series starting at 30 μM with an HP 300e Digital Dispenser (each dose was applied in triplicate). DMSO was backfilled to each well up to 301 nL total volume of test compound+DMSO, and a total of 301 nL DMSO was added to a control/no test compound well in triplicate. The cells in cell culture plates were incubated with the compounds at 37° C. and 5% CO2 for 72 hours. Then 50 μl of Cell Titer Glo 2.0 reagent was added to each well of the cell culture plates. The contents were covered from light and mixed on an orbital shaker at room temperature for 10 min. Luminescence was recorded by a Synergy H1 Microplate Reader (Biotek, Winooski, Vt.). Cells were assessed as a percentage of DMSO only treated control cells. Curves were plotted and IC50 values were calculated using the GraphPad Prism 8 program based on a sigmoidal dose-response equation (4 parameter).

Assay [3] deals with T2, FGFR2 (Homo sapiens, UniProt P21802).
T2 construct: made in house; host or cells: E. coli host derived from BL21, infected with T7 phage
Nature of the assay: Kinase binding assay (Kd), FGFR2. The settings on record: 11-point 3-fold dilution, qPCR readout. The procedure, abridged:
as §1
For orientation: In qPCR the cycle at which signal appears reflects the starting amount.

In assay [4] the target is T3, FGFR3 (V555M) (Homo sapiens, UniProt P22607, V555M).
T3 construct: made in house; host or cells: E. coli host derived from BL21, infected with T7 phage
Nature of the assay: Kinase binding assay (Kd), FGFR3 (V555M). The settings on record: 11-point 3-fold dilution, qPCR readout. The procedure, abridged: as §1

Assay [5] concerns the target T4, FGFR3 (Homo sapiens, UniProt P22607).
T4 construct: made in house; host or cells: E. coli host derived from BL21, infected with T7 phage
Put plainly: Kinase binding assay (Kd), FGFR3. Conditions: 11-point 3-fold dilution, qPCR readout. The gist of the method:
as §1

For assay [6], the target named is T5, FGFR1-BCR Ba/F3 cells (Homo sapiens, UniProt P11362).
T5 construct: Ba/F3 FGFR1; FGFR1-BCR; Advanced Cellular Dynamics, (Seattle, WA); fused on or other part: P11274 (Breakpoint cluster region protein)
Nature of the assay: Ba/F3 cell viability assay, FGFR1. The assay is classed as cell-based. The settings on record: FGFR1-BCR Ba/F3, 48 hours, Cell Titer-Glo 2.0; read-out: Ba/F3 Cells FGFR1 (IC50 nM). The text has this:
Experimental Purpose: Recombinant kinase fusions are transduced into parental Ba/F3, which becomes dependent upon this constitutive kinase activity for IL3-independent survival. Inhibition of kinase activity leads to cell death, which is monitored using CellTiter-Glo® 2.0 (Promega) which measures intracellular ATP concentration that in turn serves as a marker for viability. FGFR1-BCR Ba/F3 and FGFR3-BAIAP2L1 Ba/F3 were obtained from Advanced Cellular Dynamics (Seattle, Wash.)
Cell Viability Assay Procedure: Cell Titer-Glo® 2.0 Luminescent cell viability assay reagent was purchased from Promega (Madison, Wis.). FGFR1-BCR Ba/F3 and FGFR3-BAIAP2L1 Ba/F3 cells were cultured in RPMI1640 media supplemented with 10% fetal bovine serum. Cultures were maintained at 37° C. in a humidified atmosphere of 5% CO2 and 95% air.
Cells were plated in 96-well clear bottom/white plates (Corning #3903) at 10,000 cells/well in 100 μl of media, incubated overnight. The next day, test compound DMSO stock solutions were made at 10 mM and 2 μM final concentration. Compounds were then added to cells in a 9-dose, 10-fold dilution series starting at 30 μM with an HP 300e Digital Dispenser (each dose was applied in triplicate). DMSO was backfilled to each well up to 301 nL total volume of test compound+DMSO, and a total of 301 nL DMSO was added to a control/no test compound well in triplicate. The cells in cell culture plates were incubated with the compounds at 37° C. and 5% CO2 for 48 hours. Then 50 μl of Cell Titer Glo 2.0 reagent was added to each well of the cell culture plates. The contents were covered from light and mixed on an orbital shaker at room temperature for 10 min. Luminescence was recorded by a Synergy H1 Microplate Reader (Biotek, Winooski, Vt.). Cells were assessed as a percentage of DMSO only treated control cells. Curves were plotted and IC50 values were calculated using the GraphPad Prism 8 program based on a sigmoidal dose-response equation (4 parameter).
On the technique in general: Cellular ATP, detected with luciferase, serves as a proxy for viable cell number.

T5 sequence (P11362 whole entry, change not shown, the tested form may be a part): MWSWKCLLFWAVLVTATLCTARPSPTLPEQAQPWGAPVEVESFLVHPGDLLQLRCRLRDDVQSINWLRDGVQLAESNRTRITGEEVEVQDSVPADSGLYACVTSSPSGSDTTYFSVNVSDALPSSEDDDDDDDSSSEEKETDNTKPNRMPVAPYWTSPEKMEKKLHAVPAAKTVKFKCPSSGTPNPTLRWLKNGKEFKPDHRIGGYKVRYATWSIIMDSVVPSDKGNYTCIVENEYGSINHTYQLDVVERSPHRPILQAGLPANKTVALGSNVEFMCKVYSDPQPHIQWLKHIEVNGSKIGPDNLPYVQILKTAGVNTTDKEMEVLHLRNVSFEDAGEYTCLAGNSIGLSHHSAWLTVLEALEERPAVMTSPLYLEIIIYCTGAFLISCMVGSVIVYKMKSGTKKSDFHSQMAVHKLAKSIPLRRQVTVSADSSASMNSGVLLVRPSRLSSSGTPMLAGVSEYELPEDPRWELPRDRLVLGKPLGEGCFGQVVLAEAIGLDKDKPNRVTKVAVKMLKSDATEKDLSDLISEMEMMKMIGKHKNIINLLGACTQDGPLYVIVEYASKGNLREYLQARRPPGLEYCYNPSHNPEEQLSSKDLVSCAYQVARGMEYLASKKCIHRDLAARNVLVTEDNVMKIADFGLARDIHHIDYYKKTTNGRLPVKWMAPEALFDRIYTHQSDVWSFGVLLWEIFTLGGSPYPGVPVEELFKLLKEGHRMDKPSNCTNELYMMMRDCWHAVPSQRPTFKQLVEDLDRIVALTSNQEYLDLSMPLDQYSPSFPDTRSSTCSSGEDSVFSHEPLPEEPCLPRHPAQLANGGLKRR
T2 sequence (P21802 22-821): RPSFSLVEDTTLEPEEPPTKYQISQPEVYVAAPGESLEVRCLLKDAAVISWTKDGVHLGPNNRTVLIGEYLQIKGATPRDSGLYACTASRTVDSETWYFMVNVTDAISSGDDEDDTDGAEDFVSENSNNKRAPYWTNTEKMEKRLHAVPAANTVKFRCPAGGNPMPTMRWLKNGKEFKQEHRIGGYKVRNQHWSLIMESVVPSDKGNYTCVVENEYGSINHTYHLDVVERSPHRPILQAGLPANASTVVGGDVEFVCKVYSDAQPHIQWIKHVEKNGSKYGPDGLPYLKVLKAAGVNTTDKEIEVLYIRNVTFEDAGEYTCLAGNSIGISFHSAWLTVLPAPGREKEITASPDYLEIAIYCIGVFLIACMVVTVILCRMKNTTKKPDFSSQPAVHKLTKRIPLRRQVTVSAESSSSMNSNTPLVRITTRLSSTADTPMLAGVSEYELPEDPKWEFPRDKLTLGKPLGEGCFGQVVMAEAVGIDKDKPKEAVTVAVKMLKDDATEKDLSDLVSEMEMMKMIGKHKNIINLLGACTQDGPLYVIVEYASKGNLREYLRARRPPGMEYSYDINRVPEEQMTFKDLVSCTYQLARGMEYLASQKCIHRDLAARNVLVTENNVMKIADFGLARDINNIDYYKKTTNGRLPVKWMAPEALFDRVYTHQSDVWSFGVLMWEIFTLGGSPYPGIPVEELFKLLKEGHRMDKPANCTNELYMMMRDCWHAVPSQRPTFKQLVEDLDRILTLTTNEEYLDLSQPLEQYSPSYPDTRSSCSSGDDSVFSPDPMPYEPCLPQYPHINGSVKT
T1 sequence (P22455 22-802): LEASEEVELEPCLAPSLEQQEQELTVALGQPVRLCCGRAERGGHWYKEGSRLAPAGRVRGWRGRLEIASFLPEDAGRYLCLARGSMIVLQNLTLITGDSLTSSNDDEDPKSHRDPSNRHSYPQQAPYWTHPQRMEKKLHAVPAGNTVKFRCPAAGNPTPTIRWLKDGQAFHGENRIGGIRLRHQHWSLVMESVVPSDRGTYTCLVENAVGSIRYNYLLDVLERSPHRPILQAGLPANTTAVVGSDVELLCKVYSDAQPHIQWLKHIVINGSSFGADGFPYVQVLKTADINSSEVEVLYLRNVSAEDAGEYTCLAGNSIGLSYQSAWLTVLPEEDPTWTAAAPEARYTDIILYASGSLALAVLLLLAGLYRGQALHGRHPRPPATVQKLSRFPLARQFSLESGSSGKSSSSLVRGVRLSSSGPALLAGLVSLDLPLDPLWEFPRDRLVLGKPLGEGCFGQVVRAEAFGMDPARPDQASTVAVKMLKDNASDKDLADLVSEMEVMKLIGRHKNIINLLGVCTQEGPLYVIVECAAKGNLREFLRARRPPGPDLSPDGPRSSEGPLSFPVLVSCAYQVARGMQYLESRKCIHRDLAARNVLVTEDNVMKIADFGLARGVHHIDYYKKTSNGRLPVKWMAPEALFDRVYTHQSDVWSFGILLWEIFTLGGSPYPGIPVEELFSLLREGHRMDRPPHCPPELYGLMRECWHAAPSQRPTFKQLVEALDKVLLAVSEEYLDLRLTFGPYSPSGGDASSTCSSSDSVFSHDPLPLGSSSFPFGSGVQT
T4 sequence (P22607 23-806): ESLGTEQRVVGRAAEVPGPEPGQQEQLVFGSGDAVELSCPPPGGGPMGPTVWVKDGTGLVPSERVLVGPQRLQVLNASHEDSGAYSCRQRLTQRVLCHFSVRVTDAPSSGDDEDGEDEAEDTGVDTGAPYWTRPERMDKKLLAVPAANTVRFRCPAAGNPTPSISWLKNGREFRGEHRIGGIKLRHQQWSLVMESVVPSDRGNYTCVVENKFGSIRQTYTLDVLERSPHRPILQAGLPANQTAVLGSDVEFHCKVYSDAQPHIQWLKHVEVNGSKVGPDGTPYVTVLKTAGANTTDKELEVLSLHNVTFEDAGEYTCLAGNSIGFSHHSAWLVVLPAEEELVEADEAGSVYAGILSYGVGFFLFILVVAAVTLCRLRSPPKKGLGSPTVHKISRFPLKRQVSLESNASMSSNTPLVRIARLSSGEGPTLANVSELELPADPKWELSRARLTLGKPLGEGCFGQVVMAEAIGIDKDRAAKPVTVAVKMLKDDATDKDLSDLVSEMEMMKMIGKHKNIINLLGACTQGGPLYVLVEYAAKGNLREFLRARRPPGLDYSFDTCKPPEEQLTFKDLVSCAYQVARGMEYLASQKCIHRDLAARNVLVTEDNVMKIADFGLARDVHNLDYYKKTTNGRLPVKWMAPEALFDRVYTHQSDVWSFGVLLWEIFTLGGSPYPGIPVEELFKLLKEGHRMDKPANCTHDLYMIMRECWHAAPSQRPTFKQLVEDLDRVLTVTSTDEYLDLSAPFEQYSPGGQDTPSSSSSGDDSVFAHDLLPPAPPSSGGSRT
T3 sequence (P22607 23-806 V555M): as the sequence (P22607 23-806) above, with V533M counted along it

Consider `C=CC(=O)Nc1ccc2c(c1)c(C)cn2-c1nc(Nc2ccc(N=S(C)(C)=O)c(F)c2)ncc1Cl` [Example 60, N-[1-[5-Chloro-2-[4-[[dimethyl(oxo)-λ^6-sulfanylidene]amino]-3-fluoro-anilino]pyrimidin-4-yl]-3-methyl-indol-5-yl]prop-2-enamide], for which the Kd in assay [1] was found to be 42 nM; in assay [3], 3.2 nM; in assay [4], 1.7 nM; in assay [5], 3.5 nM. Besides, in assay [2], the IC50 came to 16 nM. Also, the GI50 in assay [6] came out at 2 nM.
Take `C=CC(=O)Nc1ccc2c(c1)c(C)cn2-c1nc(Nc2ccc(N=S(C)(C)=O)cc2)ncc1Cl` [Example 61, N-[1-[5-Chloro-2-[4-[[dimethyl(oxo)-λ^6-sulfanylidene]amino]anilino]pyrimidin-4-yl]-3-methyl-indol-5-yl]prop-2-enamide]: the Kd in assay [1] turned out to be 100 nM; in assay [3], 6 nM; in assay [4] it was 2 nM; in assay [5], 6 nM. The IC50 in assay [2] is 23 nM. Moreover, in assay [6], the GI50 worked out at 2 nM.
Take `C=CC(=O)Nc1ccc2c(c1)c(C)cn2-c1nc(Nc2ccc(N=S(C)(C)=O)c(F)c2)ncc1C#N` [Example 62, N-[1-[5-Cyano-2-[4-[[dimethyl(oxo)-λ^6-sulfanylidene]amino]-3-fluoro-anilino]pyrimidin-4-yl]-3-methyl-indol-5-yl]prop-2-enamide]: the Kd in assay [1] was 170 nM; in assay [3], 16 nM; in assay [4] it was 11 nM; in assay [5], 20 nM. Also, the IC50 in assay [2] turned out to be 64 nM. The GI50 in assay [6] is 9 nM.
With `C=CC(=O)Nc1ccc2c(c1)c(C)cn2-c1nc(Nc2ccc(N=S(C)(C)=O)c(F)c2)ncc1C` [Example 63, N-[1-[2-[4-[[dimethyl(oxo)-λ^6-sulfanylidene]amino]-3-fluoro-anilino]-5-methyl-pyrimidin-4-yl]-3-methyl-indol-5-yl]prop-2-enamide], the Kd was found to be 39 nM in assay [1], 3 nM in assay [3], 1 nM in assay [4] and 3 nM in assay [5]. In addition, the IC50 in assay [2] was 8 nM. The GI50 in assay [6] turned out to be 1 nM.
As to `C=CC(=O)Nc1ccc2c(c1)c(C)cn2-c1nc(Nc2ccc(N=S(C)(C)=O)c(OC)c2)ncc1Cl` [Example 64, N-[1-[5-Chloro-2-[4-[[dimethyl(oxo)-λ^6-sulfanylidene]amino]-3-methoxy-anilino]pyrimidin-4-yl]-3-methyl-indol-5-yl]prop-2-enamide], the equilibrium dissociation constant (Kd) in assay [1] was 59 nM; in assay [3], 4 nM; in assay [4], 1 nM; in assay [5], 4 nM. For the same molecule, the IC50 in assay [2] was 12 nM. For the same molecule, the GI50 in assay [6] came to 3 nM.
As to `C=CC(=O)Nc1ccc2c(ccn2-c2nc(Nc3ccc(N=S(C)(C)=O)cc3)ncc2Cl)c1` [Example 66, N-[1-[5-chloro-2-[4-[[dimethyl(oxo)-λ^6-sulfanylidene]amino]anilino]-pyrimidin-4-yl]indol-5-yl]prop-2-enamide], the Kd in assay [1] worked out at 680 nM; in assay [3], 37 nM; in assay [4] it was 5.3 nM; in assay [5] it was 21 nM. For the same molecule, the IC50 in assay [2] was determined as 113 nM. The GI50 in assay [6] came to 6 nM.
Take `C=CC(=O)Nc1ccc2c(ccn2-c2nc(Nc3ccc(S(C)(=N)=O)cc3)ncc2Cl)c1` (stereo not drawn) [Example 70, N-[1-[5-Chloro-2-[4-(methylsulfonimidoyl)anilino]-pyrimidin-4-yl]indol-5-yl]prop-2-enamide]: the Kd was found to be 370 nM in assay [1], 25 nM in assay [3], 9.2 nM in assay [4] and 21 nM in assay [5]. In addition, the IC50 in assay [2] worked out at 159 nM. For the same molecule, the GI50 in assay [6] came to 8 nM.
For the molecule `C=CC(=O)Nc1ccc2c(-c3nc(Nc4ccc(N=S(C)(C)=O)cc4)ncc3Cl)cn(C)c2c1` [Example 92, N-[3-[5-chloro-2-[4-[[dimethyl(oxo)-λ^6-sulfanylidene]amino]anilino]pyrimidin-4-yl]-1-methyl-indol-6-yl]prop-2-enamide], the Kd in assay [1] turned out to be 230 nM; in assay [3] it was 13 nM; in assay [4], 3 nM; in assay [5] it was 12 nM. Further, the IC50 in assay [2] was 47 nM. For the same molecule, the GI50 in assay [6] was 1 nM.
